Read-outs that look alike come from different tables or passages of the source.
What was measured:
[1] = tested on: P. falciparum stage V male gametocytes (male gamete formation); test: P. falciparum dual gamete formation assay (Pf DGFA), male readout (exflagellation), 48 h carry-over format; format: cell-based, Plasmodium falciparum NF54; conditions: for IC50 / inhibition at 2 µM: Plasmodium falciparum; for activity in the Pf DGFA: freshly resynthesized compound; for inhibition at 2 µM: primary screen, single replicate
[2] = tested on: P. falciparum stage V female gametocytes (female gamete formation); test: P. falciparum dual gamete formation assay (Pf DGFA), female readout (Pfs25 expression), 48 h carry-over format; format: cell-based, Plasmodium falciparum NF54; conditions: Plasmodium falciparum; for inhibition at 2 µM: primary screen, single replicate
HepG2 cells = test: HepG2 toxicity (CellTiter-Glo, parallel to liver stage assay); format: cell-based, human
Procedure: Compound inhibition of P. berghei sporozoite liver infection was assessed in a high-throughput luciferase assay. 1536-well plates (789173-F, Greiner Bio-One) were pre-seeded with 5 µl HepG2-A16-CD81^EGFP cells grown in DMEM (11965–092, Invitrogen) containing 10% FBS (35–011-CV, Corning) and 1× Pen Strep Glutamine (10378–016, Invitrogen). Then, 50 nl of compound in DMSO was dispensed in 12-point serial dilution dose-response format (50 µM to 2.82 × 10^−4 µM), and incubated overnight.A. stephensi mosquitoes infected with P. berghei-ANKA-GFP-Luc-SMCON (Pb-Luc)[41] sporozoites bearing the antifolate-resistance-conferring Toxoplasma gondii dihydrofolate reductase-thymidylate synthase selectable marker, pyR2. After dissection, ~1000 sporozoites in 5 µl screening media (DMEM, 11965–092, Invitrogen; 5% FBS, 35–011-CV, Corning; 5x Pen Strep Glutamine, 10378–016, Invitrogen) were added per well and incubated for 48 h (37 °C, 5% CO2). Bioluminescence was measured using an EnVision microplate reader (Perkin Elmer), following the addition of 2 µl per well of Bright-Glo™ (Promega). Compound toxicity against HepG2 cells was determined in parallel by measuring cellular ATP levels reported by luciferase activity. Methods were similar to the P. berghei liver stage assay, except for the addition of CellTiter-Glo® (Promega) as a detection reagent. DMSO (0.5%) was used as a negative control in both assays, with Atovaquone (5 µM) and Puromycin (10 µM) acting as positive controls in the P. berghei and toxicity assays, respectively.

[3] = BPCA vs GHCDL stock of DDD599, adjusted for correct molecular weight, read-out: Pf DGFA male IC50
[4] = SAR, Fig. 6 and Fig. 7, read-out: Male IC50
[5] = BPCA vs GHCDL stock of DDD599, adjusted for correct molecular weight, read-out: Pf DGFA female IC50
[6] = 24h preincubation/carry-over, read-out: Pf DGFA Female IC50
[7] = 48 h, dose response retest of primary hits, 48 h incubation, read-out: Male IC50
[8] = 48h preincubation/carry-over, read-out: Pf DGFA Male IC50
[9] = 48 h, dose response retest of primary hits, 48 h incubation, read-out: Female IC50
[10] = 48h preincubation/carry-over, read-out: Pf DGFA Female IC50
[11] = SAR, Fig. 7, read-out: Female IC50

Structure (SMILES)	IC50 [2, 6]	Human HepG2 assay TOX50 (HepG2 cells; human, 48 h)	IC50 [1, 7]	IC50 [1, 8]	inhibition at 2 µM ([1]; 48 h incubation)	IC50 [2, 9]	IC50 [2, 10]	inhibition at 2 µM ([2]; 48 h incubation)	further results
O=C(CCl)Nc1ccc(Br)cc1 [BPCA, N-(4-bromophenyl)-2-chloroacetamide]	–	–	–	–	–	–	–	–	IC50 [1, 3]: 1.46 µM; IC50 [1, 4]: 1.42 µM; Selectivity ([1]; parasite selectivity compared to Tox50 in HepG2 cells): 17; IC50 [2, 5]: 11 µM
CC(=O)c1c(C)nn(CC(=O)Nc2ccc(Br)cc2)c1C [DDD01027599]	> 12.5 µM	25.00 µM	–	–	–	–	–	–	IC50 [1, 3]: 1.38 µM; IC50 ([1]; compound resynthesised at GSK, read-out: IC50 against male gametocytes): > 50 µM; activity in the Pf DGFA [1]: inactive; IC50 [2, 5]: 3.43 µM; IC50 ([2]; compound resynthesised at GSK, read-out: IC50 against female gametocytes): > 50 µM
O=S(=O)(NCC1(O)CCOc2ccccc21)c1ccccc1F (stereo not drawn) [DDD01028073]	> 12.5 µM	>50.0 µM	0.29 µM	0.24 µM	95%	> 10 µM	> 12.5 µM	< 30%	IC50 [1, 4]: 0.34 µM; IC50 [2, 11]: > 12.5 µM
Cc1ccc(S(=O)(=O)NCC2(O)CCOc3ccccc32)s1 (stereo not drawn) [DDD01028074]	> 12.5 µM	>50.0 µM	0.22 µM	0.49 µM	101%	> 10 µM	> 12.5 µM	< 30%	IC50 [1, 4]: 0.61 µM; IC50 [2, 11]: > 12.5 µM
O=S(=O)(NCC1(O)CCOc2ccccc21)c1ccc(Cl)s1 (stereo not drawn) [DDD01028075]	> 12.5 µM	>50.0 µM	0.45 µM	1.48 µM	53.1%	> 10 µM	> 12.5 µM	< 30%	IC50 [1, 4]: 0.24 µM; IC50 [2, 11]: > 12.5 µM
O=S(=O)(NCC1(O)CCOc2ccccc21)c1ccccc1Br (stereo not drawn) [DDD01028076]	> 12.5 µM	>50.0 µM	0.16 µM	0.72 µM	98.3%	> 10 µM	> 12.5 µM	< 30%	IC50 [1, 4]: 0.53 µM; IC50 [2, 11]: > 12.5 µM
COc1cccc(-n2ccc3nc(N4CCCC4)ncc3c2=O)c1 [DDD01034957]	> 12.5 µM	>50.0 µM	–	> 12.5 µM	–	–	> 12.5 µM	–	–
O=S(=O)(NCC1(O)CCOc2ccccc21)c1cccs1 (stereo not drawn) [DDD01035879]	> 12.5 µM	>50.0 µM	1.1 µM	1.65 µM	83.8%	> 10 µM	> 12.5 µM	< 30%	IC50 [1, 4]: 0.28 µM; IC50 [2, 11]: > 12.5 µM
O=S(=O)(NCC1(O)CCOc2ccccc21)c1ccc(Br)s1 (stereo not drawn) [DDD01035881]	> 12.5 µM	>50.0 µM	0.54 µM	0.7 µM	102%	> 10 µM	> 12.5 µM	< 30%	IC50 [1, 4]: 0.19 µM; IC50 [2, 11]: > 12.5 µM
Cc1cccc(NC(=O)c2cccc(OCc3nnnn3C)c2)n1 [DDD01038630]	> 12.5 µM	>50.0 µM	–	> 12.5 µM	–	–	> 12.5 µM	–	–
CC(c1ccco1)N(C(=O)CNc1ccc(C#N)cc1)C1CC1 (stereo not drawn) [DDD01062645]	> 12.5 µM	>50.0 µM	0.43 µM	2.07 µM	96%	> 10 µM	> 12.5 µM	< 30%	–
Cc1ccc(CN(c2cc(C)nc3nc(C(F)(F)F)nn23)C2CC2)cc1 [DDD01063654]	> 12.5 µM	>50.0 µM	–	> 12.5 µM	–	–	> 12.5 µM	–	–
Cc1cc(C)c(CNCC(O)c2ccc(F)c(F)c2)c(C)c1.Cl (stereo not drawn) [DDD01065539]	> 12.5 µM	–	–	> 12.5 µM	–	–	> 12.5 µM	–	Human HepG2 assay TOX50 (HepG2 cells; 48h incubation): 36.6 µM
CC(NCC1CCN(CCO)CC1)c1ccc(OC(F)(F)F)cc1 (stereo not drawn) [DDD01073716]	> 12.5 µM	>50.0 µM	7.09 µM	1.43 µM	43.9%	> 10 µM	4.12 µM	< 30%	–
CN(Cc1cccc(F)c1)C(=O)CS(=O)(=O)Cc1c(Cl)cccc1Cl [DDD01077188]	> 12.5 µM	>50.0 µM	–	> 12.5 µM	–	–	> 12.5 µM	–	–
CN1CCC(NCC(O)c2cccc(OCc3ccccc3)c2)CC1 (stereo not drawn) [DDD01079164]	> 12.5 µM	38.40 µM	5.75 µM	0.92 µM	45.7%	> 10 µM	3.12 µM	< 30%	–
CNc1cc(C)nc(NC2CCCN(C3Cc4ccccc4C3)C2)n1 (stereo not drawn) [DDD01243506]	> 12.5 µM	>50.0 µM	–	> 12.5 µM	–	–	> 12.5 µM	–	HepG2 TOX50 (HepG2 cells; human, 48 h): ≥ 50 µM
OC1(CN2CCC(Oc3cccc(C(F)(F)F)c3)CC2)CCNC1 (stereo not drawn) [DDD01245291]	> 25 µM	21.70 µM	3.05 µM	1.11 µM	48.3%	5.78 µM	4.13 µM	< 30%	–
CC(c1cccs1)N(C)Cc1cnc(-c2ccccn2)nc1 (stereo not drawn) [DDD01246628]	> 25 µM	11.30 µM	2.54 µM	1.17 µM	67.8%	5.32 µM	> 25 µM	41.9%	–
CC(C)CN1CCn2nc(CNc3ncnc4[nH]ccc34)cc2C1 [DDD01249504]	> 25 µM	>50.0 µM	2.27 µM	1.66 µM	52.1%	> 10 µM	> 25 µM	< 30%	IC50 ([1]; 240 h, resynthesized, aged 10 days at room temperature in the light, read-out: IC50 in Pf DGFA after aging): 0.381 µM; activity in the Pf DGFA [1]: inactive; activity in Pf DGFA after aging ([1]; resynthesized, incubated in the dark at 37 °C): inactive; activity in Pf DGFA ([1]; resynthesized, untreated compound): inactive
CCCn1nccc1C(=O)N1CCN(C2CCc3ccccc3C2)CC1 (stereo not drawn) [DDD01251134]	> 12.5 µM	>50.0 µM	–	> 12.5 µM	–	–	> 12.5 µM	–	–
Cc1nn(C)c(Oc2ccc(Cl)cc2)c1CN1CCC(CN)C1 (stereo not drawn) [DDD01254274]	> 25 µM	>50.0 µM	4.08 µM	2.25 µM	53.1%	> 10 µM	> 25 µM	< 30%	–
CCc1ccc(C2c3nc[nH]c3CCN2Cc2nccn2CC)nc1 (stereo not drawn) [DDD01254473]	> 25 µM	>50.0 µM	> 10 µM	3.96 µM	< 30%	2.79 µM	0.167 µM	30.5%	–
CCOc1ccc2ccccc2c1CNCC1CCNCC1.Cl.Cl [DDD01255740]	> 25 µM	>50.0 µM	4.4 µM	0.41 µM	35.6%	> 10 µM	1.88 µM	< 30%	–
Cc1ccc(-c2cc(C(=O)NCCC3=CCCCC3)[nH]n2)o1 [DDD01255968]	> 12.5 µM	>50.0 µM	1.55 µM	1.82 µM	37.5%	> 10 µM	> 12.5 µM	< 30%	IC50 ([1]; resynthesized, incubated at room temperature, read-out: IC50 in Pf DGFA after aging): 15.9 µM; IC50 ([1]; resynthesized, prolonged incubation at 37 °C, read-out: IC50 in Pf DGFA after aging): 5.85 µM; activity in the Pf DGFA [1]: inactive
CCn1ncc(Br)c1CN(C)S(=O)(=O)c1ccc(C)cc1 [DDD01259521]	> 12.5 µM	>50.0 µM	–	> 12.5 µM	–	–	> 12.5 µM	–	–
c1cnnc(N2CCCC2CNc2ncnc3sccc23)c1 (stereo not drawn) [DDD01299704]	> 12.5 µM	>50.0 µM	–	> 12.5 µM	–	–	> 12.5 µM	–	–
